Measurements from US20100099561A1, “HETEROBICYCLIC ALKYLTHIO-BRIDGED ISOXAZOLINES” (E.I. DU PONT DE NEMOURS AND COMPANY, priority 2008, published 2010).

What was measured:
Type in all cases: in vivo
[1] = tested on: barnyardgrass (Echinochloa crus-galli); assay: Test B flooded paddy test, barnyardgrass; settings: Flood
Summary of the method: (§1)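 2-leaf plants; pots flooded 3 cm above soil; compound added to paddy water; depth maintained. Greenhouse 13–15 d. Visual rating vs controls, 0 (no effect) to 100 (complete control); dash = no result.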

[2] = tested on: large crabgrass (Digitaria sanguinalis); assay: Test A preemergence, large crabgrass; settings: 0 to 100 scale (0 no effect, 100 complete control)
Summary of the method: (§2)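 Sow seeds in loam–sand blend; spray soil directly (pre) and treat emerged one- to two-leaf plants 2–10 cm tall (post) with compound in surfactant-containing non-phytotoxic solvent. Keep in greenhouse about ten days. Score injury visually against controls from 0 to 100.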

[3] = tested on: ducksalad (Heteranthera limosa); assay: Test B flooded paddy test, ducksalad; settings: Flood, scale 0 to 100
Summary of the method: as §1

corn (Zea mays) [4] = assay: Test A postemergence, corn; settings: 0 to 100 scale (0 no effect, 100 complete control)
Summary of the method: as §2

[5] = tested on: morningglory (Ipomoea spp.); assay: Test A postemergence, morningglory; settings: 0 to 100 scale (0 no effect, 100 complete control)
Summary of the method: as §2

[6] = tested on: giant foxtail (Setaria faberi); assay: Test A preemergence, giant foxtail; settings: 0 to 100 scale (0 no effect, 100 complete control)
Summary of the method: as §2

corn (Zea mays) [7] = assay: Test A preemergence, corn; settings: 0 to 100 scale (0 no effect, 100 complete control)
Summary of the method: as §2

[8] = tested on: wheat (Triticum aestivum); assay: Test A preemergence, wheat; settings: 0 to 100 scale (0 no effect, 100 complete control)
Summary of the method: as §2

[9] = tested on: morningglory (Ipomoea spp.); assay: Test A preemergence, morningglory; settings: 0 to 100 scale (0 no effect, 100 complete control)
Summary of the method: as §2

[10] = tested on: large crabgrass (Digitaria sanguinalis); assay: Test A postemergence, large crabgrass; settings: 0 to 100 scale (0 no effect, 100 complete control)
Summary of the method: as §2

[11] = tested on: pigweed (Amaranthus retroflexus); assay: Test A postemergence, pigweed; settings: 0 to 100 scale (0 no effect, 100 complete control)
Summary of the method: as §2

[12] = tested on: umbrella sedge (Cyperus difformis); assay: Test B flooded paddy test, umbrella sedge; settings: Flood, scale 0 to 100
Summary of the method: as §1

rice (Oryza sativa) = assay: Test B flooded paddy test, rice; settings: Flood, scale 0 to 100
Summary of the method: as §1

[13] = tested on: barnyardgrass (Echinochloa crus-galli); assay: Test A preemergence, barnyardgrass; settings: 0 to 100 scale (0 no effect, 100 complete control)
Summary of the method: as §2

[14] = tested on: giant foxtail (Setaria faberi); assay: Test A postemergence, giant foxtail; settings: 0 to 100 scale (0 no effect, 100 complete control)
Summary of the method: as §2

[15] = tested on: velvetleaf (Abutilon theophrasti); assay: Test A postemergence, velvetleaf; settings: 0 to 100 scale (0 no effect, 100 complete control)
Summary of the method: as §2

[16] = tested on: pigweed (Amaranthus retroflexus); assay: Test A preemergence, pigweed; settings: 0 to 100 scale (0 no effect, 100 complete control)
Summary of the method: as §2

[17] = tested on: wheat (Triticum aestivum); assay: Test A postemergence, wheat; settings: 0 to 100 scale (0 no effect, 100 complete control)
Summary of the method: as §2

[18] = tested on: velvetleaf (Abutilon theophrasti); assay: Test A preemergence, velvetleaf; settings: 0 to 100 scale (0 no effect, 100 complete control)
Summary of the method: as §2

[19] = tested on: barnyardgrass (Echinochloa crus-galli); assay: Test A postemergence, barnyardgrass; settings: 0 to 100 scale (0 no effect, 100 complete control)
Summary of the method: as §2

[20] = 250 g ai/ha, scale 0 to 100 (0 no effect, 100 complete control)

CC1(C)CC([S+]([O-])Cc2c(C(F)(F)F)nc3n(c2=O)CCCCC3)=NO1 (centres unmarked) [Compound 34]
Plant response rating, Barnyardgrass ([1]; 31 g ai/ha, scale 0 to 100): 0
Plant response rating, Barnyardgrass ([1]; 62 g ai/ha, scale 0 to 100): 0
Plant response rating, Barnyardgrass ([1]; 125 g ai/ha, scale 0 to 100): 0
Plant response rating, Barnyardgrass [1, 20]: 0
Plant response rating, Crabgrass, Large ([2]; 125 g ai/ha): 0
Plant response rating, Crabgrass, Large ([2]; 500 g ai/ha): 80
Plant response rating, Ducksalad ([3]; 31 g ai/ha): 0
Plant response rating, Ducksalad ([3]; 62 g ai/ha): 0
Plant response rating, Ducksalad ([3]; 125 g ai/ha): 0
Plant response rating, Ducksalad ([3]; 250 g ai/ha): 0
Plant response rating, Corn (corn (Zea mays) [4]; 125 g ai/ha): 0
Plant response rating, Corn (corn (Zea mays) [4]; 500 g ai/ha): 0
Plant response rating, Morningglory ([5]; 125 g ai/ha): 30
Plant response rating, Morningglory ([5]; 500 g ai/ha): 40
Plant response rating, Foxtail, Giant ([6]; 125 g ai/ha): 0
Plant response rating, Foxtail, Giant ([6]; 500 g ai/ha): 90
Plant response rating, Corn (corn (Zea mays) [7]; 125 g ai/ha): 0
Plant response rating, Corn (corn (Zea mays) [7]; 500 g ai/ha): 0
Plant response rating, Wheat ([8]; 125 g ai/ha): 0
Plant response rating, Wheat ([8]; 500 g ai/ha): 50
Plant response rating, Morningglory ([9]; 125 g ai/ha): 0
Plant response rating, Morningglory ([9]; 500 g ai/ha): 0
Plant response rating, Crabgrass, Large ([10]; 125 g ai/ha): 0
Plant response rating, Crabgrass, Large ([10]; 500 g ai/ha): 40
Plant response rating, Pigweed ([11]; 125 g ai/ha): 0
Plant response rating, Pigweed ([11]; 500 g ai/ha): 0
Plant response rating, Sedge, Umbrella ([12]; 31 g ai/ha): 0
Plant response rating, Sedge, Umbrella ([12]; 62 g ai/ha): 0
Plant response rating, Sedge, Umbrella ([12]; 125 g ai/ha): 0
Plant response rating, Sedge, Umbrella ([12]; 250 g ai/ha): 0
Plant response rating, Rice (rice (Oryza sativa); 31 g ai/ha): 0
Plant response rating, Rice (rice (Oryza sativa); 62 g ai/ha): 0
Plant response rating, Rice (rice (Oryza sativa); 125 g ai/ha): 0
Plant response rating, Rice (rice (Oryza sativa); 250 g ai/ha): 0
Plant response rating, Barnyardgrass ([13]; 125 g ai/ha): 0
Plant response rating, Barnyardgrass ([13]; 500 g ai/ha): 70
Plant response rating, Foxtail, Giant ([14]; 125 g ai/ha): 0
Plant response rating, Foxtail, Giant ([14]; 500 g ai/ha): 60
Plant response rating, Velvetleaf ([15]; 125 g ai/ha): 0
Plant response rating, Velvetleaf ([15]; 500 g ai/ha): 0
Plant response rating, Pigweed ([16]; 125 g ai/ha): 0
Plant response rating, Pigweed ([16]; 500 g ai/ha): 0
Plant response rating, Wheat ([17]; 125 g ai/ha): 0
Plant response rating, Wheat ([17]; 500 g ai/ha): 20
Plant response rating, Velvetleaf ([18]; 125 g ai/ha): 0
Plant response rating, Velvetleaf ([18]; 500 g ai/ha): 0
Plant response rating, Barnyardgrass ([19]; 125 g ai/ha): 0
Plant response rating, Barnyardgrass ([19]; 500 g ai/ha): 50

CC1(C)CC([S+]([O-])Cc2c(C(F)(F)Cl)nc3n(c2=O)CCCS3)=NO1 (centres unmarked) [Compound 36]
Plant response rating, Barnyardgrass ([1]; 31 g ai/ha, scale 0 to 100): 0
Plant response rating, Barnyardgrass ([1]; 62 g ai/ha, scale 0 to 100): 0
Plant response rating, Barnyardgrass ([1]; 125 g ai/ha, scale 0 to 100): 0
Plant response rating, Barnyardgrass [1, 20]: 0
Plant response rating, Crabgrass, Large ([2]; 125 g ai/ha): 30
Plant response rating, Crabgrass, Large ([2]; 500 g ai/ha): 50
Plant response rating, Ducksalad ([3]; 31 g ai/ha): 0
Plant response rating, Ducksalad ([3]; 62 g ai/ha): 0
Plant response rating, Ducksalad ([3]; 125 g ai/ha): 0
Plant response rating, Ducksalad ([3]; 250 g ai/ha): 0
Plant response rating, Corn (corn (Zea mays) [4]; 500 g ai/ha): 0
Plant response rating, Morningglory ([5]; 125 g ai/ha): 0
Plant response rating, Morningglory ([5]; 500 g ai/ha): 30
Plant response rating, Foxtail, Giant ([6]; 125 g ai/ha): 30
Plant response rating, Foxtail, Giant ([6]; 500 g ai/ha): 70
Plant response rating, Corn (corn (Zea mays) [7]; 125 g ai/ha): 0
Plant response rating, Corn (corn (Zea mays) [7]; 500 g ai/ha): 10
Plant response rating, Wheat ([8]; 125 g ai/ha): 0
Plant response rating, Wheat ([8]; 500 g ai/ha): 0
Plant response rating, Morningglory ([9]; 125 g ai/ha): 0
Plant response rating, Morningglory ([9]; 500 g ai/ha): 0
Plant response rating, Crabgrass, Large ([10]; 125 g ai/ha): 30
Plant response rating, Crabgrass, Large ([10]; 500 g ai/ha): 50
Plant response rating, Pigweed ([11]; 125 g ai/ha): 0
Plant response rating, Pigweed ([11]; 500 g ai/ha): 0
Plant response rating, Sedge, Umbrella ([12]; 31 g ai/ha): 0
Plant response rating, Sedge, Umbrella ([12]; 62 g ai/ha): 0
Plant response rating, Sedge, Umbrella ([12]; 125 g ai/ha): 0
Plant response rating, Sedge, Umbrella ([12]; 250 g ai/ha): 0
Plant response rating, Rice (rice (Oryza sativa); 31 g ai/ha): 0
Plant response rating, Rice (rice (Oryza sativa); 62 g ai/ha): 0
Plant response rating, Rice (rice (Oryza sativa); 125 g ai/ha): 0
Plant response rating, Rice (rice (Oryza sativa); 250 g ai/ha): 0
Plant response rating, Barnyardgrass ([13]; 125 g ai/ha): 0
Plant response rating, Barnyardgrass ([13]; 500 g ai/ha): 60
Plant response rating, Foxtail, Giant ([14]; 125 g ai/ha): 50
Plant response rating, Foxtail, Giant ([14]; 500 g ai/ha): 60
Plant response rating, Velvetleaf ([15]; 125 g ai/ha): 0
Plant response rating, Velvetleaf ([15]; 500 g ai/ha): 0
Plant response rating, Pigweed ([16]; 125 g ai/ha): 0
Plant response rating, Pigweed ([16]; 500 g ai/ha): 0
Plant response rating, Wheat ([17]; 125 g ai/ha): 0
Plant response rating, Wheat ([17]; 500 g ai/ha): 20
Plant response rating, Velvetleaf ([18]; 125 g ai/ha): 0
Plant response rating, Velvetleaf ([18]; 500 g ai/ha): 0
Plant response rating, Barnyardgrass ([19]; 125 g ai/ha): 20
Plant response rating, Barnyardgrass ([19]; 500 g ai/ha): 50
